Series [1] is described as follows: Solid-state stability towards thermal energy, milling and forced sieving. Conditions: for change of crystalline structure during milling: milling (Example 7: ball mill 1 minute, IR and XRPD).
A short description of series [2]: Solid-state stability upon storage at room temperature. Conditions: hemi-ethanolate for at least one month, methanolate prolonged storage. It is filed as physicochemical. The text has this: In practice, the molar ratio between aripiprazole and ethanol moieties in the isolated product is from 1:0.4 to 1:0.6, preferably 1:0.45 to 1:0.6.
The conditions of series [3]: as taught in WO 03/26659, cited from earlier work.

In the case of `O=C1CCc2ccc(OCCCCN3CCN(c4cccc(Cl)c4Cl)CC3)cc2N1` [Aripiprazole hemi-ethanolate, 7-[4-[4-(2,3-dichlorophenyl)-1-piperazinyl]butoxy]-3,4-dihydrocarbostyril], in series [1], the “stability towards thermal energy, including milling” value is given as “rather unstable”. Also, the stability upon storage entry in series [2] is “reasonably stable”.
Consider `O=C1CCc2ccc(OCCCCN3CCN(c4cccc(Cl)c4Cl)CC3)cc2N1` [Example 5], for which, in series [1] (pressed through a 100 μm sieve, IR, XRPD), the “effect of forced sieving on the crystal structure” value is given as “no detectable effect on the crystal structure”.
With `O=C1CCc2ccc(OCCCCN3CCN(c4cccc(Cl)c4Cl)CC3)cc2N1` [Anhydrous Form B, 7-[4-[4-(2,3-dichlorophenyl)-1-piperazinyl]butoxy]-3,4-dihydrocarbostyril], the water uptake entry in series [3] (in 24 hours) was “less than 0.4%”.
`O=C1CCc2ccc(OCCCCN3CCN(c4cccc(Cl)c4Cl)CC3)cc2N1` [aripiprazole methanolate, 7-[4-[4-(2,3-dichlorophenyl)-1-piperazinyl]butoxy]-3,4-dihydrocarbostyril]: the “change of crystalline structure during milling” value in series [1] is “does not change its crystalline structure”. For the same molecule, the stability upon storage result in series [2] is reported as “more stable upon prolonged storage at room temperature than the hemi-ethanolate”.
For `O=C1CCc2ccc(OCCCCN3CCN(c4cccc(Cl)c4Cl)CC3)cc2N1` [Type I aripiprazole, 7-[4-[4-(2,3-dichlorophenyl)-1-piperazinyl]butoxy]-3,4-dihydrocarbostyril], in series [3], the hygroscopicity entry is “significantly hygroscopic”.
For the molecule `O=C1CCc2ccc(OCCCCN3CCN(c4cccc(Cl)c4Cl)CC3)cc2N1` [Example 7], the “change of crystalline structure during milling” value in series [1] is on record as “crystal structure has not been changed”.
